Source: article PMC9738531, “Cholinesterases Inhibition, Anticancer and Antioxidant Activity of Novel Benzoxazole and Naphthoxazole Analogs” (Molecules, 2022)

Tests used:
[1] = test system: human cancer cell lines (HCV29T, T47D, A549, SW707); experiment: SRB antiproliferative assay, all studied cancer cell lines; assay type: cell-based; details: read-out: IC50 range against all studied cells
Method: (§1) The compounds were also evaluated for their antiproliferative potencies against human cancer cell lines as the potential anticancer agents. […]. The results are presented in Table 3 and expressed as IC50 (μM). In that score, the highest potency was shown by the analogs from the naphtho[1,2-d][1,3]oxazole group 8–10, particularly by derivative 10 with a chlorine atom on the benzenediol moiety.
(§2) In the antiproliferative assay in vitro, the following human cell lines were applied: T47D (breast cancer), SW707 (rectal adenocarcinoma), A549 (non-small cell lung carcinoma) from the American Type Culture Collection (Rockville, MD, USA) and HCV29T (bladder cancer) from the Fibiger Institute, Copenhagen, Denmark. Cytotoxicity assay was performed after 72 h exposure of the cultured cells at the concentration ranging from 0.1 to 100 μg/mL of the tested agents. The SRB test measuring the cell proliferation inhibition in the in vitro culture was applied. The cellular material fixed with TCA was stained with 0.4% sulforhodamine B (Chemie GmbH, Steinheim, Germany) dissolved in 1% acetic acid (POCh, Gliwice, Poland) for 30 min.

[2] = test system: normal mammary gland MCF10A cells; experiment: LDH cytotoxicity assay, MCF10A normal cells; assay type: cell-based, human; details: 72 h
Method: (§3) In view of the observed antiproliferative activity, the influence of the tested compounds on the normal human cells—normal mammary gland epiterial cells of the MCF10A line and the normal keratenocytes HaCaT line—was examined (Figure 5). The cells were treated with compounds 3, 8 and 10 in the concentration range from 0.1 µM to 25 µM for 72 h, after which the cell viability was tested by analysis of the level of released lactate dehydrogenase (LDH method).
(§4) Normal human epithelial cells from the mammary gland, MCF10A (a generous gift from our colleague Dr. Saraswati Sukumar (JHU), who obtained them recently from ATCC), and normal human keratinocytes HaCaT (also obtained from ATCC), were cultured in DMEM/F12 medium (Gibco), supplemented with 5% horse serum (Gibco), 5% FBS (Sigma-Aldrich Chemie GmbH, Taufkirchen, Germany ), penicillin streptomycin solution (1×) (Gibco) at 37 °C and 5% CO2. The cells were subcultured twice a week.
(§5) Human epiterial breast cells MCF10A and human keratinocytes HaCaT (1 × 10^4/mL) cells were placed on 96-well plates (Nunc, Roskilde, Denmark). The next day, the cells were exposed to increasing concentrations of compounds 3, 8 and 10 in 0.1, 0.25, 0.5, 1, 2.5, 5, 10 and 25 μM in fresh culture medium. Cytotoxicity was estimated based on the measurements of cytoplasmic lactate dehydrogenase (LDH) activity released from the damaged cells after the 72 h exposure to the compounds. The LDH assay was performed according to the manufacturer’s instructions (Cytotoxicity Detection KitPLUS LDH, Roche, Mannheim, Germany). Absorbance was measured using a microplate at two different wavelengths: “measurement wavelength” (492 nm) and “reference wavelength” (690 nm), using a microplate.

[3] = Lipophilicity by RP-18 HPLC chromatography; assay type: physicochemical
Excerpt: The lipophilicity parameter was estimated for the tested compounds as it is an important feature that influences the pharmacokinetic properties of bioactive compounds [46, 47]. Lipophilicity also determines some biological activities, such as the antiproliferative or fungistatic activity. For lipophilicity determination, reversed-phase column chromatography was used, with the octadecyl C-18 stationary phase and MeOH as the organic modifier in the isocratic conditions.
HPLC measurements were performed using a liquid chromatograph (Knauer, Berlin, Germany) with a dual pump and a UV-visible detector. The measurements were made at 254 or 320 nm at room temperature. A Eurosil Bioselect C18 (5 μm, 300 × 4.6 mm) column was applied as the stationary phase. The mobile phase consisted of different volume mixtures of 20 mM acetate buffer as the aqueous phase, and MeOH as the organic modifier (pH 7.4). The different concentrations of MeOH from 0.5 to 0.90 (v/v) range was used, depending on the structure of the compound at 0.05 intervals. The flow rate was 1 mL/min. Retention time of an unretained solute (t0) was determined by the injection of a small amount of acetone dissolved in water.
Regular changes in the retention coefficients of compounds in a function of the organic modifier MeOH content in the mobile phase are described by the Soczewiński–Wachtmeister equation [56]:log k = log kw + S φ(1)
φ—the volume fraction of organic modifier (MeOH) in the mobile phase; log kw—the intercept; S—slope of the regression curve. Log kw refers to the retention parameter of a compound with pure water as the mobile phase.

[4] = target: T1, butyrylcholinesterase (BChE, E.C. 3.1.1.8, from equine serum) (Equus caballus, UniProt P81908); experiment: biochemical; details: means ± SEM of three independent experiments
T1 construct: butyrylcholinesterase (BChE, E.C. 3.1.1.8, from equine serum); purchased Sigma-Aldrich (Steinheim, Germany); host or cells: equine serum (natural source)
T1 sequence (P81908 whole entry): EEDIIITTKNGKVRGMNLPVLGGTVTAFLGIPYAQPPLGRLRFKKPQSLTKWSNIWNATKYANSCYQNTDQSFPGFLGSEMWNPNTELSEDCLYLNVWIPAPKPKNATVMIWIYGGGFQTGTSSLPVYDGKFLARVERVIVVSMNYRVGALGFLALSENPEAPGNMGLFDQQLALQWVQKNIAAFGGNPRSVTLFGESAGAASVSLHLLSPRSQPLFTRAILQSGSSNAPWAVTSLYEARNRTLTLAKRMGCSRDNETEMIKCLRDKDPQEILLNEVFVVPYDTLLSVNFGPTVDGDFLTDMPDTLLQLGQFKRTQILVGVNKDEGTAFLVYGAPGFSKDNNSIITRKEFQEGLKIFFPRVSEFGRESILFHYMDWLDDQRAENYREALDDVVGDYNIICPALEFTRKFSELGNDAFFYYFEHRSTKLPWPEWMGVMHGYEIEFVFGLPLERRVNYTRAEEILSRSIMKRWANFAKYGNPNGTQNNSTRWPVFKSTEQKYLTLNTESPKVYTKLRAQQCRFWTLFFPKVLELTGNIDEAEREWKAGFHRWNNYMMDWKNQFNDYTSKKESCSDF
Method: (§6) The compounds were evaluated by an in vitro assay as the AChE and BChE inhibitors. The studies were carried out using the modified Ellman’s method. […] The inhibitory activities against AChE and BChE of the newly-synthesized compounds were determined exactly, according to a previous paper. […] The samples were analysed in triplicate. IC50 values were designated from a dose–response curve obtained by plotting the percentage of inhibition versus the log concentration, using GraphPad Prism 8 software. […] AChE and BChE activity data were compared using the Kruskal–Wallis test at the significance level of 1%.

[5] = target: T2, Acetylcholinesterase (AChE, E.C. 3.1.1.7, from human erythrocytes) (Homo sapiens, UniProt P22303); experiment: biochemical
T2 construct: Acetylcholinesterase (AChE, E.C. 3.1.1.7, from human erythrocytes); purchased Sigma-Aldrich (Steinheim, Germany); host or cells: human erythrocytes (natural source)
T2 sequence (P22303 other isoform, or with tags, fused parts or gaps): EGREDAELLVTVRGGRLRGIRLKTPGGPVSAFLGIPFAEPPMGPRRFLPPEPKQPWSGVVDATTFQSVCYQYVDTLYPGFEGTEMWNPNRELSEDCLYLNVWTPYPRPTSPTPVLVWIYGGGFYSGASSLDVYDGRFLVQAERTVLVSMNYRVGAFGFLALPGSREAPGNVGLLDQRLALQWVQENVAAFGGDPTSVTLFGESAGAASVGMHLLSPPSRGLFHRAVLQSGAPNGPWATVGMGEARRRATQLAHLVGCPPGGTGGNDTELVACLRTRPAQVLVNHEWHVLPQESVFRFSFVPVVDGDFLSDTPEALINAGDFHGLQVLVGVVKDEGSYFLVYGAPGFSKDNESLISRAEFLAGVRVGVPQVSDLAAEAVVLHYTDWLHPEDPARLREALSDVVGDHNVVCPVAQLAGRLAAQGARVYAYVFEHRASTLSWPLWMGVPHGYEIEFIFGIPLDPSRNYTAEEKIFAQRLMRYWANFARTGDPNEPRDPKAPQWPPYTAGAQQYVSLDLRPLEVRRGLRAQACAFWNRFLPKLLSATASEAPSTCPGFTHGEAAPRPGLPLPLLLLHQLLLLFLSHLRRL
Method: as §6

[6] = test system: HCV29T (bladder cancer) cells; experiment: SRB antiproliferative assay, HCV29T; assay type: cell-based, human; details: Homo sapiens, HCV29T, 72 h, means ± SD, read-out: IC50 HCV 29T
Method: as §1, §2

[7] = test system: A549 (non-small cell lung carcinoma) cells; experiment: SRB antiproliferative assay, A549; assay type: cell-based, human; details: Homo sapiens, A549, 72 h, means ± SD
Method: as §1, §2

[8] = test system: T47D (breast cancer) cells; experiment: SRB antiproliferative assay, T47D; assay type: cell-based, human; details: Homo sapiens, T47D, 72 h, means ± SD
Method: as §1, §2

[9] = DPPH free radical scavenging activity; details: concentration scavenging 50% of DPPH radicals; means ± SD of three experiments
Method: To evaluate the antioxidant potential of compounds as radical scavengers versus the stable free radicals, 2,2-diphenylpicrylhydrazyl (DPPH) was applied. Antioxidant properties were expressed as the IC50 value—the concentration of compound required for scavenging 50% of DPPH radicals. […].
The DPPH free radical scavenging activities of the synthesized compounds were measured by DPPH, according to the method described in the paper. The free radical scavenging activity was measured as a decrease in the absorbance of DPPH, and calculated using the equation:DPPH scavenging effects (%) = […] [(A0 − A1)/A0]∙100](2) where: A0 was the absorbance of the control reaction and A1 absorbance in the presence of the sample of the analysed compounds [62]. The IC50 values were calculated as the concentration of compound required for scavenging 50% of DPPH [45]. Results were presented as the mean ± standard deviation (SD). The antioxidant activity data were compared using the one-way ANOVA test at the significance level 5%.

[10] = test system: SW707 (rectal adenocarcinoma) cells; experiment: SRB antiproliferative assay, SW707; assay type: cell-based, human; details: Homo sapiens, SW707, 72 h, means ± SD, read-out: IC50 SW 707
Method: as §1, §2

[11] = test system: normal keratinocytes HaCaT cells; experiment: LDH cytotoxicity assay, HaCaT normal cells; assay type: cell-based, human; details: HaCaT, tested concentration to 25 µM, 72 h
Method: as §3, §4, §5

Oc1cc(O)c(-c2nc3c(ccc4ccccc43)o2)cc1Cl [Compound 10, 4-Chloro-6-(naphtho[1,2-d][1,3]oxazol-2-yl)benzene-1,3-diol]
IC50 [1]: 2180 to 2890 nM | change in level of lactate dehydrogenase ([2]; 0.1–5 µM, vs control): statistically significant reduction | toxicity to normal breast cells (LDH release) ([2]; tested concentration to 25 µM): not toxic | -S (slope of log k vs MeOH fraction) ([3]; MeOH/acetate buffer, pH 7.4): 4.996 | log kw ([3]; pH 7.4, extrapolation to pure water as mobile phase): 4.518 | IC50 [4]: 887 ± 41 nM | Selectivity for AChE ([5]; IC50 (BChE)/IC50 (AChE)): 1.278 | IC50 ([5]; means ± SEM of three independent experiments): 694 ± 11 nM | IC50 [6]: 2240 ± 830 nM | IC50 [7]: 2710 ± 120 nM | IC50 [8]: 2180 ± 1050 nM | IC50 [9]: 633 ± 146 nM | IC50 [10]: 2890 ± 340 nM | toxicity to keratinocytes (LDH release) [11]: not toxic
